Laboratory results as given in patent publication US20200297684A1, “TOPICAL COMPOSITIONS AND METHODS FOR TREATING ACNE VULGARIS” (Bausch Health Ireland Limited, priority 2019, published 2020).
“And” between values parts separate entries of the source, which are not always exact repeats. Equal entries are not always repeated.

Experiments:
[1] = Chemical stability of tretinoin in an admixture with benzoyl peroxide at room condition and 32° C., under room light; assay type: physicochemical; details: for Assay (% label claim), 32° C., Room Light / Assay (% label claim), Room Condition: tretinoin in admixture with benzoyl peroxide
Procedure: The chemical stability of tretinoin in an admixture with benzoyl peroxide of the present invention at room temperature and 32 degrees C., under room light condition is shown in Table 1.
More than 97 and 96 percent of treinoin in the original admixture of the present invention remains after 24 hours at room condition and 32° C., under room light, respectively. Such stability ensures that the therapeutic efficacy of tretinoin is not diminished between once-a-day applications.

[2] = equal parts of 0.05% tretinoin gel and gel containing 5% BPO and clindamycin phosphate; 32° C. for 7 hours; cited from earlier work
[3] = time 0 hr, replicates top/middle/bottom

## CC1=C(/C=C/C(C)=C/C=C/C(C)=C/C(=O)O)C(C)(C)CCC1 [Tretinoin, tretinoin]
[1]; admixture of tretinoin and benzoyl peroxide compositions, even at 32° C. under room light condition
  time for which tretinoin in the admixture is chemically stable: at least 24 hours
[1]; after 24 hours at 32° C., under room light
  percent of tretinoin in the original admixture remaining: > 96%
[1]; after 24 hours at room condition
  percent of tretinoin in the original admixture remaining: More than 97%
[1]; [3]
  Assay (% label claim), 32° C., Room Light: 98.8 % label claim and 97.1 % label claim and 98.3 % label claim
  Assay (% label claim), Room Condition: 98.8 % label claim and 97.1 % label claim and 98.3 % label claim
[1]; time 1 hr
  Assay (% label claim), 32° C., Room Light: 98.5 % label claim and 97.1 % label claim
  Assay (% label claim), Room Condition: 96.8 % label claim and 97.2 % label claim
[1]; time 3 hr
  Assay (% label claim), Room Condition: 97.8 % label claim and 97.5 % label claim
[1]; time 4 hr
  Assay (% label claim), 32° C., Room Light: 98.6 % label claim and 98.2 % label claim
[1]; time 5 hr
  Assay (% label claim), Room Condition: 97.0 % label claim and 97.3 % label claim
[1]; time 8 hr
  Assay (% label claim), Room Condition: 99.5 % label claim
[1]; time 12 hr
  Assay (% label claim), 32° C., Room Light: 98.9 % label claim and 97.0 % label claim
  Assay (% label claim), Room Condition: 97.3 % label claim and 97.8 % label claim
[1]; time 24 hr
  Assay (% label claim), 32° C., Room Light: 96.6 % label claim and 97.8 % label claim
  Assay (% label claim), Room Condition: 98.1 % label claim and 97.4 % label claim
[2]
  stability of tretinoin in the mixture: stable
